Data taken from patent US6914045B2, “Glycopeptide antibiotics” (Wyeth Holdings Corporation, priority 2001, dated 2005).

Tests used:
[1] = tested on: Staphylococcus aureus-SMITH (GC 4543); test: acute lethal infection in mice; format: in vivo; conditions: acute lethal infection, female CD-1 mice, intraperitoneal challenge, intravenous 30 min. after infection, 7 day survival
How it was run: (§1)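 Female CD-1 mice (20±2 g) got an intraperitoneal bacterial challenge lethal to untreated controls within 24–48 hr. Compound was dosed intravenously 30 min after infection, five mice per dose. ED50 was calculated from 7-day survival pooled across 3 tests.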

[2] = tested on: Enterococcus faecalis (GC 2246); test: acute lethal infection in mice; format: in vivo; conditions: female CD-1 mice, intraperitoneal challenge, intravenous 30 min. after infection, 7 day survival
How it was run: as §1

Streptococcus sp. = test: in vitro antibacterial evaluation, MIC by broth dilution; format: cell-based; conditions: broth dilution, 18 hours at 35° C.
How it was run: (§2)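 Read-out: the lowest concentration at which the test strain fails to grow. Serial dilutions (64-0.06 μg/mL) in Muller-Hinton II […], 5×10^5 CFU/mL inoculum, NCCLS M7-A2 procedure.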

Staphylococcus sp. = test: as above; format: cell-based
How it was run: as §2

Escherichia coli [3] = test: as above; format: cell-based; conditions: 18 hours at 35° C., strain ATCC 25922
How it was run: as §2

Enterococcus sp. = test: as above; format: cell-based; conditions: broth dilution, 18 hours at 35° C.
How it was run: as §2

Escherichia coli [4] = test: as above; format: cell-based; conditions: 18 hours at 35° C.
How it was run: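 Broth dilution MIC per NCCLS M7-A2 in Mueller-Hinton II medium, inoculum 5×10^5 CFU/mL, antibiotic range 64-0.06 μg/mL. MIC taken as lowest concentration inhibiting growth.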

[5] = broth dilution, 18 hours at 35° C.
[6] = strain ATCC 29213; broth dilution, 18 hours at 35° C.
[7] = strain GC 1131; broth dilution, 18 hours at 35° C.
[8] = strain GC 4541; broth dilution, 18 hours at 35° C.
[9] = strain GC 4542; broth dilution, 18 hours at 35° C.
[10] = strain GC 4544; broth dilution, 18 hours at 35° C.
[11] = strain GC 4545; broth dilution, 18 hours at 35° C.
[12] = Enterococcus faecalis (ATCC 29212)
[13] = Enterococcus faecalis (GC 4552)
[14] = Enterococcus faecalis (GC 4553)
[15] = Enterococcus faecalis (GC 4554)

CCCC(CCC)C(=O)OCC1OC(OC2C(CO)OC(Oc3ccc(CC4NC(=O)C(C(C)c5ccccc5)NC(=O)CNC(=O)C(CO)NC(=O)C(C(O)C5CNC(=N)N5C5OC(CO)C(O)C(O)C5O)NC(=O)C(C(O)C5CNC(=N)N5)NC4=O)cc3)C(O)C2O)C(O)C(O)C1O (stereo not drawn) [Example 99c, Cyclo[glycyl-β-methylphenylalanyl-O-[4-O-[6-O-(2-propylpentanoyl)hexopyranosyl]-hexolpyranosyl]tyrosyl-3-(2-iminoimidazolidin-4-yl)seryl-3-(3-hexopyranosyl-2-iminoimidazolidin-4-yl)serylseryl]]
4 µg/mL: MIC Enterococcus avium (GC 4558) (Enterococcus sp.; Enterococcus avium (GC 4558)) | MIC Enterococcus faecalis (ATCC 29212) (Enterococcus sp.; [12]) | MIC Enterococcus faecalis (GC 2242) (Enterococcus sp.; Enterococcus faecalis (GC 2242)) | MIC Enterococcus faecalis (GC 4552) (Enterococcus sp.; [13]) | MIC Enterococcus faecalis (GC 4553) (Enterococcus sp.; [14]) | MIC Enterococcus faecalis (GC 4554) (Enterococcus sp.; [15]) | MIC Enterococcus faecium (GC 2243) (Enterococcus sp.; Enterococcus faecium (GC 2243)) | MIC Enterococcus faecium (GC 4556) (Enterococcus sp.; Enterococcus faecium (GC 4556)) | MIC Enterococcus faecalis (ATCC 29212) (Enterococcus sp.; strain ATCC 29212) | MIC Enterococcus faecalis (GC 2242) (Enterococcus sp.; strain GC 2242) | MIC Enterococcus faecium (GC 2243) (Enterococcus sp.; strain GC 2243) | MIC Enterococcus faecalis (GC 4552) (Enterococcus sp.; strain GC 4552) | MIC Enterococcus faecalis (GC 4553) (Enterococcus sp.; strain GC 4553) | MIC Enterococcus faecalis (GC 4554) (Enterococcus sp.; strain GC 4554) | MIC Enterococcus faecium (GC 4556) (Enterococcus sp.; strain GC 4556) | MIC Enterococcus avium (GC 4558) (Enterococcus sp.; strain GC 4558)
<0.5 µg/mL: MIC Streptococcus agalactiae (GC 4564) (Streptococcus sp.; Streptococcus agalactiae (GC 4564)) | MIC Streptococcus pneumoniae (GC 4565) (Streptococcus sp.; Streptococcus pneumoniae (GC 4565)) | MIC Streptococcus pyogenes (ID-3187) (Streptococcus sp.; Streptococcus pyogenes (ID-3187)) | MIC Streptococcus agalactiae (GC 4564) (Streptococcus sp.; strain GC 4564) | MIC Streptococcus pneumoniae (GC 4565) (Streptococcus sp.; strain GC 4565) | MIC Streptococcus pyogenes (ID-3187) (Streptococcus sp.; strain ID-3187)
4.3 mg/kg: median effective dose (ED50), Enterococcus faecalis (GC 2246) [2]
64 µg/mL: MIC Escherichia coli (ATCC 25922) (Escherichia coli [3])
1 µg/mL: MIC Coagulase Negative Staphylococcus (GC 4547) (Staphylococcus sp.; [5]) | MIC Coagulase Negative Staphylococcus (GC 4548) (Staphylococcus sp.; [5]) | MIC Coagulase Negative Staphylococcus (GC 4549) (Staphylococcus sp.; [5]) | MIC Coagulase Negative Staphylococcus (ID-3941) (Staphylococcus sp.; [5]) | MIC Staphylococcus aureus (ATCC 29213) (Staphylococcus sp.; [5]) | MIC Staphylococcus aureus (GC 4542) (Staphylococcus sp.; [5]) | MIC Staphylococcus aureus (GC 4545) (Staphylococcus sp.; [5]) | MIC Staphylococcus aureus-SMITH (GC 4543) (Staphylococcus sp.; [5]) | MIC Staphylococcus haemolyticus (GC 4546) (Staphylococcus sp.; [5]) | MIC Staphylococcus haemolyticus (GC 4546) (Staphylococcus sp.; broth dilution, 18 hours at 35° C.; strain GC 4546) | MIC Coagulase Negative Staphylococcus (GC 4547) (Staphylococcus sp.; broth dilution, 18 hours at 35° C.; strain GC 4547) | MIC Coagulase Negative Staphylococcus (GC 4548) (Staphylococcus sp.; broth dilution, 18 hours at 35° C.; strain GC 4548) | MIC Coagulase Negative Staphylococcus (GC 4549) (Staphylococcus sp.; broth dilution, 18 hours at 35° C.; strain GC 4549) | MIC Coagulase Negative Staphylococcus (ID-3941) (Staphylococcus sp.; broth dilution, 18 hours at 35° C.; strain ID-3941) | MIC Staphylococcus aureus-SMITH (GC 4543) (Staphylococcus sp.; broth dilution, 18 hours at 35° C.; strain SMITH GC 4543) | MIC Staphylococcus aureus (ATCC 29213) (Staphylococcus sp.; [6]) | MIC Staphylococcus aureus (GC 4542) (Staphylococcus sp.; [9]) | MIC Staphylococcus aureus (GC 4545) (Staphylococcus sp.; [11])
0.52 mg/kg: median effective dose (ED50), Staphylococcus aureus-SMITH (GC 4543) [1]
2 µg/mL: MIC Coagulase Negative Staphylococcus (GC 4551) (Staphylococcus sp.; [5]) | MIC Staphylococcus aureus (GC 1131) (Staphylococcus sp.; [5]) | MIC Staphylococcus aureus (GC 4541) (Staphylococcus sp.; [5]) | MIC Staphylococcus aureus (GC 4544) (Staphylococcus sp.; [5]) | MIC Coagulase Negative Staphylococcus (GC 4551) (Staphylococcus sp.; broth dilution, 18 hours at 35° C.; strain GC 4551) | MIC Staphylococcus aureus (GC 1131) (Staphylococcus sp.; [7]) | MIC Staphylococcus aureus (GC 4541) (Staphylococcus sp.; [8]) | MIC Staphylococcus aureus (GC 4544) (Staphylococcus sp.; [10]) | MIC Enterococcus faecium (GC 4557) (Enterococcus sp.; Enterococcus faecium (GC 4557)) | MIC Enterococcus faecium (GC 4557) (Enterococcus sp.; strain GC 4557)

CC(c1ccccc1)C1NC(=O)CNC(=O)C(CO)NC(=O)C(C(O)C2CNC(=N)N2C2OC(CO)C(O)C(O)C2O)NC(=O)C(C(O)C2CNC(=N)N2)NC(=O)C(Cc2ccc(OC3OC(CO)C(OC4OC(COC(=O)C(c5ccccc5)c5ccccc5)C(O)C(O)C4O)C(O)C3O)cc2)NC1=O (stereo not drawn) [Example 96c, Cyclo[glycyl-β-methylphenylalanyl-O-[4-O-[6-O-(diphenylacetyl)hexolpyranosyl]hexopyranosyl]tyrosyl-3-(2-iminoimidazolidin-4-yl)seryl-3-(3-hexopyranosyl-2-iminoimidazolidin-4-yl)serylseryl]]
0.29 mg/kg: median effective dose (ED50), Staphylococcus aureus-SMITH (GC 4543) [1]
5.2 mg/kg: median effective dose (ED50), Enterococcus faecalis (GC 2246) [2]
0.25 µg/mL: MIC Coagulase Negative Staphylococcus (GC 4548) (Staphylococcus sp.; [5]) | MIC Coagulase Negative Staphylococcus (GC 4548) (Staphylococcus sp.; strain GC 4548; broth dilution, 18 hours at 35° C.)
0.5 µg/mL: MIC Coagulase Negative Staphylococcus (ID-3941) (Staphylococcus sp.; [5]) | MIC Staphylococcus aureus-SMITH (GC 4543) (Staphylococcus sp.; [5]) | MIC Staphylococcus haemolyticus (GC 4546) (Staphylococcus sp.; [5]) | MIC Staphylococcus aureus (GC 1131) (Staphylococcus sp.; [7]) | MIC Staphylococcus aureus (GC 4541) (Staphylococcus sp.; [8]) | MIC Staphylococcus aureus-SMITH (GC 4543) (Staphylococcus sp.; strain GC 4543; broth dilution, 18 hours at 35° C.) | MIC Staphylococcus aureus (GC 4545) (Staphylococcus sp.; [11]) | MIC Staphylococcus haemolyticus (GC 4546) (Staphylococcus sp.; strain GC 4546; broth dilution, 18 hours at 35° C.) | MIC Coagulase Negative Staphylococcus (ID-3941) (Staphylococcus sp.; strain ID-3941; broth dilution, 18 hours at 35° C.)
64 µg/mL: MIC Escherichia coli (ATCC 25922) (Escherichia coli [4])
2 µg/mL: MIC Enterococcus avium (GC 4558) (Enterococcus sp.; Enterococcus avium (GC 4558)) | MIC Enterococcus faecalis (ATCC 29212) (Enterococcus sp.; [12]) | MIC Enterococcus faecalis (GC 4552) (Enterococcus sp.; [13]) | MIC Enterococcus faecalis (GC 4553) (Enterococcus sp.; [14]) | MIC Enterococcus faecalis (GC 4554) (Enterococcus sp.; [15]) | MIC Enterococcus faecium (GC 2243) (Enterococcus sp.; Enterococcus faecium (GC 2243)) | MIC Enterococcus faecium (GC 4556) (Enterococcus sp.; Enterococcus faecium (GC 4556)) | MIC Enterococcus avium (GC 4558) (Enterococcus sp.) | MIC Enterococcus faecalis (ATCC 29212) (Enterococcus sp.) | MIC Enterococcus faecalis (GC 4552) (Enterococcus sp.) | MIC Enterococcus faecalis (GC 4553) (Enterococcus sp.) | MIC Enterococcus faecalis (GC 4554) (Enterococcus sp.) | MIC Enterococcus faecium (GC 2243) (Enterococcus sp.) | MIC Enterococcus faecium (GC 4556) (Enterococcus sp.)
<0.06 µg/mL: MIC Streptococcus agalactiae (GC 4564) (Streptococcus sp.) | MIC Streptococcus pneumoniae (GC 4565) (Streptococcus sp.) | MIC Streptococcus pyogenes (ID-3187) (Streptococcus sp.) | MIC Streptococcus agalactiae (GC 4564) (Streptococcus sp.; strain GC 4564) | MIC Streptococcus pneumoniae (GC 4565) (Streptococcus sp.; strain GC 4565) | MIC Streptococcus pyogenes (ID-3187) (Streptococcus sp.; strain ID-3187)
1 µg/mL: MIC Coagulase Negative Staphylococcus (GC 4547) (Staphylococcus sp.; [5]) | MIC Coagulase Negative Staphylococcus (GC 4549) (Staphylococcus sp.; [5]) | MIC Coagulase Negative Staphylococcus (GC 4551) (Staphylococcus sp.; [5]) | MIC Staphylococcus aureus (ATCC 29213) (Staphylococcus sp.; [6]) | MIC Staphylococcus aureus (GC 4542) (Staphylococcus sp.; [9]) | MIC Staphylococcus aureus (GC 4544) (Staphylococcus sp.; [10]) | MIC Coagulase Negative Staphylococcus (GC 4547) (Staphylococcus sp.; strain GC 4547; broth dilution, 18 hours at 35° C.) | MIC Coagulase Negative Staphylococcus (GC 4549) (Staphylococcus sp.; strain GC 4549; broth dilution, 18 hours at 35° C.) | MIC Coagulase Negative Staphylococcus (GC 4551) (Staphylococcus sp.; strain GC 4551; broth dilution, 18 hours at 35° C.) | MIC Enterococcus faecium (GC 4557) (Enterococcus sp.; Enterococcus faecium (GC 4557)) | MIC Enterococcus faecalis (GC 2242) (Enterococcus sp.) | MIC Enterococcus faecium (GC 4557) (Enterococcus sp.) | MIC Enterococcus faecalis (GC 2242) (Enterococcus sp.; strain GC 2242)
